In article PMC8359193, “Summary of reference chemicals evaluated by the fish short‐term reproduction assay, OECD TG229, using Japanese Medaka, Oryzias latipes” (Journal of Applied Toxicology, 2021):

Tests used:
[1] = biological target: medaka ARβ (mARβ) (Oryzias latipes, UniProt D1MV73); assay: Medaka ARβ reporter gene assay (RGA), agonist assay, HepG2 cells; assay type: cell-based, Japanese medaka (Oryzias latipes); details: mARβ RGA agonist assay; ND = no significant response even at the highest assay concentration (in parentheses)
In short: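 HepG2 cells were transfected with medaka ARβ expression vector, MMTV-luciferase reporter and pRL-TK Renilla internal control. Agonist EC50 was estimated by nonlinear curve fitting, e.g. three-parameter logistic.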

[2] = tested on: Japanese medaka (Oryzias latipes); assay: Fish short-term reproduction assay (FSTRA, OECD TG229), 21-day flow-through exposure; details: for Fertility rate (%) / Mortality (%) Female / Mortality (%) Male / Number of fertilized eggs / Number of total eggs / SSC Female / SSC Male / VTG (ng/mg of liver) Female / VTG (ng/mg of liver) Male: 21 days; for GSI Female / GSI Male / HSI Female / HSI Male / Length Female / Length Male / Weight Female / Weight Male: at completion of exposure; for effect on fecundity (number of total eggs), in words: within the test concentrations
In short: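 Japanese medaka (NIES-R strain, 16 ± 2 weeks old) were exposed in flow-through tanks for 3 weeks, three males and three females per tank, four replicate tanks per group, with a dilution water control. Concentrations were spaced by a factor of 2–5. Eggs were collected daily and counted as fertilized or unfertilized.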

[3] = tested on: Japanese medaka; details: cited from earlier work
[4] = F0 generation, FLCT, ref Seki et al. (2003)

Chain of medaka ARβ (mARβ) (D1MV73 entry or part of it): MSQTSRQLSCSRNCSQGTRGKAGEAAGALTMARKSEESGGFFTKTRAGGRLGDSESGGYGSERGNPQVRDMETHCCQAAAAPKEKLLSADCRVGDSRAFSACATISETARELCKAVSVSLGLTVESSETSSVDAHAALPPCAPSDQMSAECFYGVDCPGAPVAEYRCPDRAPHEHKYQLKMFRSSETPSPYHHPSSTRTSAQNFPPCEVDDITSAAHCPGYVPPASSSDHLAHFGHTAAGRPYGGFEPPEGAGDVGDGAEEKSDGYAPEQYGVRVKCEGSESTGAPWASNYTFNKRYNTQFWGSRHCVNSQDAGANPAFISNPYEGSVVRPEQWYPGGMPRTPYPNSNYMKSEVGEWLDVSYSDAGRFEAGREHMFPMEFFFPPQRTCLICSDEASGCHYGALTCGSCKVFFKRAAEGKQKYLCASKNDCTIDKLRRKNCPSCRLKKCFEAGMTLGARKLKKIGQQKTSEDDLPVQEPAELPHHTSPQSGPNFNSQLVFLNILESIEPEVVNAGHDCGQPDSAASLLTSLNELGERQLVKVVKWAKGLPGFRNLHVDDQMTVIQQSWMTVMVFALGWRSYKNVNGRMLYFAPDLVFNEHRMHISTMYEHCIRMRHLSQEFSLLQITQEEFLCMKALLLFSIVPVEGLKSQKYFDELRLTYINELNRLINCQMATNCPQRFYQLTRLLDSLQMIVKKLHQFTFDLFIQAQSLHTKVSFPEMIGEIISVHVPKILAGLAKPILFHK

C[C@]12CCC(=O)C=C1CC[C@@H]1[C@@H]2CC[C@@]2(C)[C@H]1CC[C@]2(C)O [MT, 17α‐methyltestosterone]
EC50 [1]: 0.12 nM | effect on female hepatic VTG, in words ([2]; 21-day exposure): decreased | LOEC on female SSC (papillary process formation on anal fin) ([2]; 21-day exposure, measured conc.): 20.1 ng/L | Fertility rate (%) ([2]; measured conc. 20.1 ng/L): 89% | Mortality (%) Female ([2]; measured conc. 20.1 ng/L): 0% | Mortality (%) Male ([2]; measured conc. 20.1 ng/L): 0% | Number of fertilized eggs ([2]; measured conc. 20.1 ng/L): 23 | Number of total eggs ([2]; measured conc. 20.1 ng/L): 25 ± 4.6 /female/day | SSC Female ([2]; measured conc. 20.1 ng/L): 28 ± 2.0 | SSC Male ([2]; measured conc. 20.1 ng/L): 104 ± 12 | VTG (ng/mg of liver) Female ([2]; measured conc. 20.1 ng/L): 1,650 ± 134 ng/mg of liver | VTG (ng/mg of liver) Male ([2]; measured conc. 20.1 ng/L): 1.5 ± 0.3 ng/mg of liver | GSI Female ([2]; measured conc. 20.1 ng/L): 13.5% | GSI Male ([2]; measured conc. 20.1 ng/L): 0.68% | HSI Female ([2]; measured conc. 20.1 ng/L): 4.8% | HSI Male ([2]; measured conc. 20.1 ng/L): 2.5% | Length Female ([2]; measured conc. 20.1 ng/L): 36.1 mm | Length Male ([2]; measured conc. 20.1 ng/L): 37.3 mm | Weight Female ([2]; measured conc. 20.1 ng/L): 592 mg | Weight Male ([2]; measured conc. 20.1 ng/L): 546 mg | Fertility rate (%) ([2]; measured conc. 77.4 ng/L): 80% | Mortality (%) Female ([2]; measured conc. 77.4 ng/L): 0% | Mortality (%) Male ([2]; measured conc. 77.4 ng/L): 0% | Number of fertilized eggs ([2]; measured conc. 77.4 ng/L): 8.1 | Number of total eggs ([2]; measured conc. 77.4 ng/L): 10 ± 2.9 /female/day | SSC Female ([2]; measured conc. 77.4 ng/L): 78 ± 7.9 | SSC Male ([2]; measured conc. 77.4 ng/L): 106 ± 7.6 | VTG (ng/mg of liver) Female ([2]; measured conc. 77.4 ng/L): 1,080 ± 391 ng/mg of liver | VTG (ng/mg of liver) Male ([2]; measured conc. 77.4 ng/L): 2.1 ± 0.3 ng/mg of liver | GSI Female ([2]; measured conc. 77.4 ng/L): 18.6% | GSI Male ([2]; measured conc. 77.4 ng/L): 0.78% | HSI Female ([2]; measured conc. 77.4 ng/L): 4.4% | HSI Male ([2]; measured conc. 77.4 ng/L): 2.4% | Length Female ([2]; measured conc. 77.4 ng/L): 36.7 mm | Length Male ([2]; measured conc. 77.4 ng/L): 38.3 mm | Weight Female ([2]; measured conc. 77.4 ng/L): 694 mg | Weight Male ([2]; measured conc. 77.4 ng/L): 603 mg | Fertility rate (%) ([2]; measured conc. 300 ng/L): 79% | Mortality (%) Female ([2]; measured conc. 300 ng/L): 8.3% | Mortality (%) Male ([2]; measured conc. 300 ng/L): 0% | Number of fertilized eggs ([2]; measured conc. 300 ng/L): 1.4 | Number of total eggs ([2]; measured conc. 300 ng/L): 1.8 ± 1.1 /female/day | SSC Female ([2]; measured conc. 300 ng/L): 85 ± 11 | SSC Male ([2]; measured conc. 300 ng/L): 112 ± 7.1 | VTG (ng/mg of liver) Female ([2]; measured conc. 300 ng/L): 320 ± 266 ng/mg of liver | VTG (ng/mg of liver) Male ([2]; measured conc. 300 ng/L): 1.9 ± 0.6 ng/mg of liver | GSI Female ([2]; measured conc. 300 ng/L): 12.6% | GSI Male ([2]; measured conc. 300 ng/L): 0.68% | HSI Female ([2]; measured conc. 300 ng/L): 4.2% | HSI Male ([2]; measured conc. 300 ng/L): 2.5% | Length Female ([2]; measured conc. 300 ng/L): 37.0 mm | Length Male ([2]; measured conc. 300 ng/L): 37.5 mm | Weight Female ([2]; measured conc. 300 ng/L): 654 mg | Weight Male ([2]; measured conc. 300 ng/L): 561 mg | effect on fecundity (number of total eggs), in words ([2]; 21-day exposure): significantly reduced | concentration causing induction of SSC in females and reduction of reproduction ([3]; long-term testing, ref Seki et al., 2004): 9.98 pg/mL

CCC(C)(C)c1ccc(O)cc1 [PTH, 4‐tert‐Pentylphenol]
LOEC on VTG induction in male (in molarity) ([2]; hepatic VTG, 21-day exposure): 590 nM | LOEC for VTG induction in males ([2]; hepatic VTG, 21-day exposure, measured conc.): 96.5 µg/L | effect on male GSI, in words ([2]; highest concentration, 21-day exposure): significant decreasing | LOEC (in molarity) for male VTG: times higher than that of E2 ([2]; in vivo): 14,000 times | LOEC on male VTG induction: times smaller than the LOEC for CMP ([2]; in vivo): > 8 times | Fertility rate (%) ([2]; measured conc. 96.5 μg/L): 92% | Mortality (%) Female ([2]; measured conc. 96.5 μg/L): 8.3% | Mortality (%) Male ([2]; measured conc. 96.5 μg/L): 0% | Number of fertilized eggs ([2]; measured conc. 96.5 μg/L): 18 | Number of total eggs ([2]; measured conc. 96.5 μg/L): 19 ± 6.6 /female/day | SSC Female ([2]; measured conc. 96.5 μg/L): 0 ± 0 | SSC Male ([2]; measured conc. 96.5 μg/L): 98 ± 8.0 | VTG (ng/mg of liver) Female ([2]; measured conc. 96.5 μg/L): 1,680 ± 240 ng/mg of liver | VTG (ng/mg of liver) Male ([2]; measured conc. 96.5 μg/L): 83.2 ± 106 ng/mg of liver | GSI Female ([2]; measured conc. 96.5 μg/L): 9.5% | GSI Male ([2]; measured conc. 96.5 μg/L): 0.74% | HSI Female ([2]; measured conc. 96.5 μg/L): 4.3% | HSI Male ([2]; measured conc. 96.5 μg/L): 2.5% | Length Female ([2]; measured conc. 96.5 μg/L): 34.8 mm | Length Male ([2]; measured conc. 96.5 μg/L): 35.8 mm | Weight Female ([2]; measured conc. 96.5 μg/L): 470 mg | Weight Male ([2]; measured conc. 96.5 μg/L): 532 mg | Fertility rate (%) ([2]; measured conc. 342 μg/L): 93% | Mortality (%) Female ([2]; measured conc. 342 μg/L): 8.3% | Mortality (%) Male ([2]; measured conc. 342 μg/L): 0% | Number of fertilized eggs ([2]; measured conc. 342 μg/L): 17 | Number of total eggs ([2]; measured conc. 342 μg/L): 18 ± 3.6 /female/day | SSC Female ([2]; measured conc. 342 μg/L): 0 ± 0 | SSC Male ([2]; measured conc. 342 μg/L): 94 ± 14 | VTG (ng/mg of liver) Female ([2]; measured conc. 342 μg/L): 2,820 ± 1,540 ng/mg of liver | VTG (ng/mg of liver) Male ([2]; measured conc. 342 μg/L): 621 ± 265 ng/mg of liver | GSI Female ([2]; measured conc. 342 μg/L): 8.1% | GSI Male ([2]; measured conc. 342 μg/L): 0.67% | HSI Female ([2]; measured conc. 342 μg/L): 4.5% | HSI Male ([2]; measured conc. 342 μg/L): 3.1% | Length Female ([2]; measured conc. 342 μg/L): 34.5 mm | Length Male ([2]; measured conc. 342 μg/L): 34.7 mm | Weight Female ([2]; measured conc. 342 μg/L): 476 mg | Weight Male ([2]; measured conc. 342 μg/L): 516 mg | Fertility rate (%) ([2]; measured conc. 1,100 μg/L): 74% | Mortality (%) Female ([2]; measured conc. 1,100 μg/L): 17% | Mortality (%) Male ([2]; measured conc. 1,100 μg/L): 8.3% | Number of fertilized eggs ([2]; measured conc. 1,100 μg/L): 10 | Number of total eggs ([2]; measured conc. 1,100 μg/L): 13 ± 3.6 /female/day | SSC Female ([2]; measured conc. 1,100 μg/L): 0 ± 0 | SSC Male ([2]; measured conc. 1,100 μg/L): 95 ± 5.0 | VTG (ng/mg of liver) Female ([2]; measured conc. 1,100 μg/L): 5,770 ± 2,880 ng/mg of liver | VTG (ng/mg of liver) Male ([2]; measured conc. 1,100 μg/L): 9,740 ± 800 ng/mg of liver | GSI Female ([2]; measured conc. 1,100 μg/L): 8.4% | GSI Male ([2]; measured conc. 1,100 μg/L): 0.51% | HSI Female ([2]; measured conc. 1,100 μg/L): 4.7% | HSI Male ([2]; measured conc. 1,100 μg/L): 4.1% | Length Female ([2]; measured conc. 1,100 μg/L): 33.3 mm | Length Male ([2]; measured conc. 1,100 μg/L): 34.5 mm | Weight Female ([2]; measured conc. 1,100 μg/L): 438 mg | Weight Male ([2]; measured conc. 1,100 μg/L): 498 mg | effect on fecundity (number of total eggs), in words ([2]; 21-day exposure): significant decrease | LOEC on VTG induction [3, 4]: ≤ 51.1 µg/L | LOEC on reproductive impairment [3, 4]: 224 µg/L
